The nature of data set [1]: Activity of compounds of Formula 1 (test not specified).
In another data set the test system is drug-naive rats. As to the kind of experiment: In vivo behaviour: locomotor activity in drug-naive rats. To be noted: ± SEM. The source says:
(§1) Photobeam sensors were spaced 2.5 cm apart.

Data set [2] relates to DOPAC (3,4-dihydroxyphenylacetic acid) in the rat striatum. Put plainly: In vivo neurochemistry: increase of DOPAC in the rat striatum. The note with it: for ED50: read-out: ED50 DOPAC. From the text:
After the behavioural activity sessions, the rats were decapitated and their brains rapidly taken out and put on an ice-cold petri-dish. The limbic forebrain, the striatum, the frontal cortex and the remaining hemispheral parts of each rat were dissected and frozen. Each brain part was subsequently analyzed with respect to its content of monoamines and their metabolites.
The monoamine transmitter substances (NA (noradrenaline), DA (dopamine), 5-HT (serotonin)) as well as their amine (NM (normethanephrine), 3-MT (3-methoxytyramine)) and acid (DOPAC (3,4-dihydroxyphenylacetic acid), 5-HIAA (5-hydroxyindoleacetic acid), HVA (homovanillic acid)) metabolites are quantified in brain tissue homogenates by HPLC separations and electrochemical detection
The analytical method is based on two chromatographic separations dedicated for amines or acids. Two chromatographic systems share a common auto injector with a 10-port valve and two sample loops for simultaneous injection on the two systems. Both systems are equipped with a reverse phase column (Luna C18(2), dp […], 50*2mm i.d., Phenomenex) and electrochemical detection is accomplished at two potentials on glassy carbon electrodes (MF-1000, Bioanalytical Systems, Inc.). The column effluent is passed via a T-connection to the detection cell or to a waste outlet. This is accomplished by two solenoid valves, which block either the waste or detector outlet. By preventing the chromatographic front from reaching the detector, better detection conditions are achieved. […] Detection potentials relative to Ag/AgCl reference are 0.45 and 0.60V. […] Detection potentials relative to Ag/AgCl reference are 0.45 and 0.65V.
ED50 values for the increase of DOPAC in striatum are calculated by curve fitting.

The nature of data set [3]: Metabolic stability in rat liver microsomes. In kind it is in vitro ADME. The note with it: pH 7.4, 37 °C, NADPH, fraction of test compound eliminated after 15 minutes, read-out: turnover at 15 minutes. The protocol: The protein precipitation was then removed by rejecting the pellet after centrifugation at 10.000 g for 10 minutes (Heraeus, Biofuge fresco) in 4°C. The test compound was analysed using HPLC-MS (Hewlett-Packard 1100MSD Series) with a Zorbax SB-C18 column (2.1*150 mm, 5 µm) using 0.03% formic acid and acetonitrile as mobile phase (gradient) or a Zorbax Eclipse XDB-C18 (3*75 mm, 3.5µm) using 0.03% acetic acid and acetonitrile as mobile phase (gradient).
A general note: Liver microsomes are a subcellular fraction often used to study metabolism.

A further data set relates to MK-801 pre-treated rats. As to the kind of experiment: In vivo behaviour: locomotor activity in MK-801 pre-treated rats. The note with it: MK-801 0.7 mg/kg i.p. 90 minutes before test compound, 30 to 60 minutes after administration, ± SEM.
Source text: as §1

Data set [4] deals with levels of dopamine and norepinephrine in the cortex. As to the kind of experiment: Microdialysis in awake and freely moving rats (cortex). It is filed as in vivo. The note with it: percent of control in relation to baseline.
Setting [5] is: drug-naive habituated rats, 11 µmol/kg, recorded between 30 and 60 minutes.
[6] abbreviates: drug-naive habituated rats, 33 µmol/kg, recorded between 30 and 60 minutes.
Where [7] appears, read: drug-naive habituated rats, 100 µmol/kg, recorded between 30 and 60 minutes.
The mark [8] stands for this setting: drug-naive rats, 11 µmol/kg, recorded for 60 minutes.
Setting [9] is: drug-naive rats, 33 µmol/kg, recorded for 60 minutes.
Setting [10] is: drug-naive rats, 100 µmol/kg, recorded for 60 minutes.
The mark [11] stands for this setting: sc, estimated ED50 on increase of DOPAC in rat striatum after systemic administration (s.c.), maximal effects limited to 350 - 400% of control, range covers 95% of fits.

Consider 18 compounds from patent EP2204363A1, “New disubstituted phenylpiperidines/piperazines as modulators of dopamine neurotransmission” (NSAB, Filial af NeuroSearch Sweden AB, Sverige, priority 2004, dated 2005).

Read-outs that look alike come from different tables or passages of the source.

As to `CCCN1CCC(c2cccc(S(C)(=O)=O)c2C(F)(F)F)CC1` [4-[3-(methylsulfonyl)-2-(trifluoromethyl)phenyl]-1-propylpiperidine], the result in data set [1] was inactive.

Take `CCCN1CCC(c2cccc(S(C)(=O)=O)c2F)CC1` [Example 1, 4-[2-FLUORO-3-(METHYLSULFONYL)PHENYL]-1-PROPYLPIPERIDINE]: the Locomotor activity in the data set with drug-naive rats (setting [5]) is listed as 1708 ± 922 counts/30 min; in the data set with drug-naive rats (setting [6]), 1337 ± 141 (P=0.001) counts/30 min; with drug-naive rats (setting [7]) it was 1365 ± 460 (P=0.057) counts/30 min; with drug-naive rats (setting [8]), 9500 ± 617 counts/60 min; with drug-naive rats (setting [9]), 7371 ± 992 counts/60 min; in the data set on drug-naive rats (setting [10]), 8103 ± 1047 counts/60 min. For the same compound, in data set [2] (setting [11]), the ED50 is 28 µmol/kg. In data set [3], the metabolised at 0.25 h came out at 3%. Moreover, in the data set on MK-801 pre-treated rats (33 µmol/kg), the “Locomotor activity, MK + example” value was 29636 ± 10019 (P=0.08) counts/30 min.

For the compound `CCN1CCC(c2cccc(S(C)(=O)=O)c2F)CC1` [Example 2, 1-ETHYL-4-[2-FLUORO-3-(METHYLSULFONYL)PHENYL]-PIPERIDINE], in data set [4] (Figure 2: 50 mol/kg s.c. (so in the source), pf. cortex), the “levels of dopamine and norepinephrine in the cortex” value was “elevate the levels of dopamine and norepinephrine in the cortex”. For the same compound, the metabolised at 0.25 h in data set [3] stood at 1%.

Turning to `CCCN1CCC(c2cccc(S(C)(=O)=O)c2Cl)CC1` [Example 3, 4-[2-CHLORO-3-(METHYLSULFONYL)PHENYL]-1-PROPYLPIPERIDINE], the Locomotor activity with drug-naive rats (setting [8]) stood at 6078 ± 605 counts/60 min; in the data set with drug-naive rats (setting [9]) it was 3023 ± 246 counts/60 min; in the data set on drug-naive rats (setting [10]), 1327 ± 299 counts/60 min. Also, in data set [2] (setting [11]), the ED50 was 9.9 µmol/kg. The “Locomotor activity, MK + example” value in the data set on MK-801 pre-treated rats (100 µmol/kg (footnote 1)) is reported as 4911 ± 2953^1 (P=0.08) counts/30 min.

Turning to `CCCN1CCC(c2cccc(S(C)(=O)=O)c2C)CC1` [Example 4, 4-[2-METHYL-3-(METHYLSULFONYL)PHENYL]-1-PROPYLPIPERIDINE], the Locomotor activity amounted to 8972 ± 1124 counts/60 min in the data set on drug-naive rats (setting [8]), 9023 ± 1415 counts/60 min in the data set on drug-naive rats (setting [9]) and 4473 ± 924 counts/60 min with drug-naive rats (setting [10]). Moreover, in data set [2] (setting [11]), the ED50 is 58 µmol/kg. In data set [3], the metabolised at 0.25 h is 4%.

As to `CCCN1CCC(c2cccc(C(F)(F)F)c2C#N)CC1` [Example 7, 2-(1-PROPYLPIPERIDIN-4-YL)-6-(TRIFLUOROMETHYL)BENZONITRILE], the Locomotor activity is listed as 7008 ± 700 counts/60 min with drug-naive rats (setting [8]), 4694 ± 986 counts/60 min in the data set on drug-naive rats (setting [9]) and 2829 ± 358 counts/60 min in the data set with drug-naive rats (setting [10]). In data set [2] (setting [11]), the ED50 is 9.7 µmol/kg. In addition, the metabolised at 0.25 h in data set [3] worked out at 22%.

Turning to `CCCN1CCC(c2cccc(C(F)(F)F)c2OC)CC1` [Example 8, 4-[2-METHOXY-3-(TRIFLUOROMETHYL)PHENYL]-1-PROPYLPIPERIDINE], the metabolised at 0.25 h in data set [3] turned out to be 49%.

In the case of `CCCN1CCC(c2ccc(Cl)c(C(F)(F)F)c2)CC1` [Example 9 of WO01/46146, reference compound], in data set [2] (Rattus norvegicus), the median effective dose (ED50) turned out to be 40 µmol/kg.

`CCCN1CCN(c2cccc(C(F)(F)F)c2F)CC1` [Example 9, 1-[2-FLUORO-3-(TRIFLUOROMETHYL)PHENYL]-4-PROPYLPIPERAZINE]: the Locomotor activity worked out at 3721 ± 242 counts/60 min with drug-naive rats (setting [8]), 3518 ± 435 counts/60 min in the data set with drug-naive rats (setting [9]) and 4265 ± 758 counts/60 min in the data set on drug-naive rats (setting [10]). Besides, the ED50 in data set [2] (Rattus norvegicus, sc) came out at 1.9 µmol/kg. Further, the “Locomotor activity, MK + example” value in the data set on MK-801 pre-treated rats (11 µmol/kg (footnote 2)) is 5916± 1918^2 (P=0.002) counts/30 min.

For the compound `COCCN1CCN(c2cccc(C(F)(F)F)c2F)CC1` [Example 10, 1-[2-FLUORO-3-(TRIFLUOROMETHYL)PHENYL]-4-(2-METHOXYETHYL)PIPERAZINE], the ED50 in data set [2] (Rattus norvegicus, sc) was 6.2 µmol/kg.

As to `CCCN1CCN(c2cccc(Cl)c2Cl)CC1` [Example 11, 1-(2,3-DICHLOROPHENYL)-4-PROPYLPIPERAZINE], the Locomotor activity in the data set with drug-naive rats (setting [8]) is 5149 ± 374 counts/60 min; in the data set with drug-naive rats (setting [9]) it was 4032 ± 828 counts/60 min; in the data set with drug-naive rats (setting [10]) it was 3299 ± 637 counts/60 min. Moreover, the ED50 in data set [2] (Rattus norvegicus, sc) was determined as 3.5 µmol/kg.

On to `CCN1CCC(c2cccc(S(C)(=O)=O)c2)CC1` [Example 12 of WO01/46145, reference compound], for which the median effective dose (ED50) in data set [2] (setting [11]) is 154 µmol/kg.

Take `CCCN1CCC(c2cccc(C#N)c2C(F)(F)F)CC1` [Example 13, 3-(1-PROPYLPIPERIDIN-4-YL)-2-(TRIFLUORO-METHYL)BENZONITRILE]: the Locomotor activity in the data set on drug-naive rats (setting [5]) is on record as 960 ± 710 counts/30 min; in the data set with drug-naive rats (setting [6]), 2870 ± 613 (P=0.008) counts/30 min; with drug-naive rats (setting [7]) it was 4366 ± 1389 (P=0.030) counts/30 min.

For the compound `CCCN1CCN(c2cccc(C#N)c2C(F)(F)F)CC1` [Example 14, 3-(4-PROPYLP I PE RAZI N-1-YL)-2-(TRI FLUORO-M ETHYL)B ENZON ITRI LE], in data set [2] (Rattus norvegicus, sc), the median effective dose (ED50) was 2.4 µmol/kg.

Consider `CCCN1CCC(c2cccc(S(C)(=O)=O)c2C#N)CC1` [Example 15, 2-(METHYLSULFONYL)-6-(1-PROPYLPIPERIDIN-4-YL)BENZONITRILE], for which the ED50 in data set [2] (setting [11]) is 28 µmol/kg.

With `CCCN1CCC(c2ccc(F)c(C(F)(F)F)c2)CC1` [Example 43 of WO01/46146, reference compound], in data set [2] (estimated ED50 on increase of DOPAC in rat striatum, maximal effects set to 200% of control, range covers 95% of fits), the median effective dose (ED50) was 35 µmol/kg.

In the case of `CN1CCN2c3ncccc3Cc3ccccc3C2C1` (stereo not drawn) [mirtazapine, reference compound], the “extracellullar norepinephrine and dopamine in the cortex” value in data set [4] (Figure 1: Remeron 10mg/kg s.c., cortex) is “increase predominantly extracellullar norepinephrine and dopamine in the cortex”.

On to `CCCN1CCC(c2cccc(C(F)(F)F)c2)CC1` [reference compound], for which the “ED50 DOPAC” value in data set [2] (estimated ED50 on increase of DOPAC in rat striatum after systemic administration (s.c.), maximal effects limited to 350 - 400% of control, range covers 95% of fits) was 84 (47 - 110) µmol/kg.

Usually ED50 stands for the midpoint of the dose-response relation.
